Measurements published in patent US10124004B2, “Pyrido[3,4-d]pyrimidine derivative and pharmaceutically acceptable salt thereof” (Teijin Pharma Limited, priority 2015, dated 2018).

These compounds were tested against T1, CDK4/cyclin D3 (Homo sapiens, UniProt P11802) (assay: Human CDK4/cyclin D3 inhibitory activity (QS S Assist CDK4/Cyclin D3_FP Kit, IMAP fluorescence polarization)). Conditions: 50% inhibitory concentration against CDK4/cyclin D3, given as class symbol.
T1 construct: purchased Carna Biosciences, Inc. QS S Assist CDK4/Cyclin D3_FP Kit
T1 sequence (P11802 whole entry): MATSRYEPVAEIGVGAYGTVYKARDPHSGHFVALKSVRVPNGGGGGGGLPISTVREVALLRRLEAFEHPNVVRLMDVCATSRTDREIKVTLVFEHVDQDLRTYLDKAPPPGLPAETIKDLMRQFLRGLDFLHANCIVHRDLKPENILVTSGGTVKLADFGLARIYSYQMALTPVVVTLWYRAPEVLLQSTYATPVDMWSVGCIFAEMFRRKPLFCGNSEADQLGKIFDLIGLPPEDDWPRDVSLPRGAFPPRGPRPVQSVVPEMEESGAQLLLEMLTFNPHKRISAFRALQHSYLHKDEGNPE
T1 sequence (P30281 whole entry partner): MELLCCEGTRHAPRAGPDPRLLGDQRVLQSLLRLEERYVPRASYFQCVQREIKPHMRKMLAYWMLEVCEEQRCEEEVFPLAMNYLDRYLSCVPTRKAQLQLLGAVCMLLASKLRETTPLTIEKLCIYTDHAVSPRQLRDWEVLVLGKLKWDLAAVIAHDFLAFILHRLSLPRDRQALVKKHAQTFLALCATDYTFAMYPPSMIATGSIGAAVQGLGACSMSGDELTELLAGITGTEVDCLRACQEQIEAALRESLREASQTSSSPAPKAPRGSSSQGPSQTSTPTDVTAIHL
Assay type: biochemical
Procedure: Human CDK4/Cyclin D3 Inhibitory Activity
Each compound was analyzed for CDK4/cyclin D3 inhibitory activity with an assay kit (QS S Assist CDK4/Cyclin D3_FP Kit, available from Carna Biosciences, Inc.). This assay kit determines kinase activity on the basis of the IMAP technology by Molecular Devices. Specifically, the kinase activity is determined through quantification of a variation in fluorescent polarization caused by binding of a kinase-phosphorylated fluorescent substance to an IMAP-binding reagent.
Each solution was prepared with the 10× assay buffer attached to the kit or a separately prepared assay buffer having the same composition as the assay buffer attached to the kit. An assay buffer was prepared by 10-fold dilution of the 10× assay buffer with distilled water. The assay buffer contains 20 mM HEPES (pH 7.4), 0.01% Tween20, and 2 mM dithiothreitol. A test compound solution was prepared by dilution of the test compound with dimethyl sulfoxide (DMSO) to a concentration 100 times higher than the final concentration and then 25-fold dilution with the assay buffer to a concentration four times higher than the final concentration. An ATP/substrate/Metal solution was prepared by five-fold dilution of the 5×ATP/substrate/Metal solution attached to the kit with the assay buffer. An enzyme solution was prepared by dilution of the CDK4/cyclin D3 attached to the kit with the assay buffer to a concentration twice higher than the final concentration (final concentration of CDK4/cyclin D3:12.5 to 25 ng/well). A detection reagent was prepared by five-fold dilution of each of 5× IMAP-binding buffer A and 5×IMAP-binding buffer B with distilled water, mixing of IMAP-binding buffer A with IMAP-binding buffer B at a ratio of 85:15, and 400-fold dilution of the IMAP-binding reagent with the mixed buffer.
The test compound solution (5 μL/well) and the ATP/substrate/Metal solution (5 μL/well) were added to a 384-well plate, and the enzyme solution or the assay buffer (10 μL/well) was added to the plate (total amount of the reaction mixture: 20 μL/well) for initiation of enzymatic reaction. […] The reaction was performed at room temperature for 45 minutes, and the detection reagent (60 μL/well) was then added to the plate, followed by further reaction for 30 minutes at room temperature under light shielding conditions. Subsequently, fluorescent polarization was determined with a microplate reader at an excitation wavelength of 485 nm and an emission wavelength of 535 nm.
The percent inhibition of enzyme activity was calculated for each test compound (note: enzyme activity=100% in the case of addition of the enzyme solution and addition of DMSO instead of the test compound solution, whereas enzyme activity=0% in the case of addition of the assay buffer instead of the enzyme solution, and addition of DMSO instead of the test compound solution). The percent inhibition of enzyme activity was fitted to a dose-response curve, to determine a 50% inhibitory concentration against CDK4/cyclin D3.
In each table, “+++” corresponds to IC50<10 nM, “++” 10 nM≤IC50<100 nM, and “+” 100 nM≤IC50.
In the case of CC(O)c1cc2cnc(Nc3ccc(OCCN(C)C)cn3)nc2c(NC2CCC(C)(C)OC2)n1 (single isomer, unassigned) [Compound 689], the IC50 is reported as < 10 nM.
For CC(O)c1cc2cnc(Nc3ccc(OCCN(C)C)cn3)nc2c(NC2CCC(C)(C)OC2)n1 (single isomer, unassigned) [Compound 690], the IC50 was < 10 nM.
With CC(C)Nc1nc(C(C)O)cc2cnc(Nc3ccc(N4CCC(O)C(C)C4)nn3)nc12 (single isomer, unassigned) [Compound 704] the IC50 was < 10 nM.
With CC(C)Nc1nc(C(C)O)cc2cnc(Nc3ccc(N4CCC(O)C(C)C4)nn3)nc12 (single isomer, unassigned) [Compound 705] the IC50 was < 10 nM.

Same assay, conditions: Human CDK4/cyclin D3 inhibitory activity; read-out: CDK4 Activity symbol
With COC(C)c1cc2cnc(Nc3ccc(O[C@@H]4CCNC[C@H]4F)cn3)nc2c(NC(C)C)n1 (relative stereo) [Compound 459] the IC50 was < 10 nM.
In the case of COC(C)c1cc2cnc(Nc3ccc(O[C@H]4CCNC[C@H]4F)cn3)nc2c(NC(C)C)n1 (relative stereo) [Compound 460], the IC50 is reported as < 10 nM.
For CC(C)Nc1nc(C(C)O)cc2cnc(Nc3ccc(N4CCCC(O)C4)nn3)nc12 (single isomer, unassigned) [Compound 582], the IC50 was < 10 nM.
For CC(C)Nc1nc(C(F)F)cc2cnc(Nc3ccc(C4CCOCC4)cn3)nc12 [Compound 160], the IC50 was < 10 nM.
An IC50 of 10 to 100 nM was found for CO[C@H](C)c1cc2cnc(Nc3ccc(N4CCNCC4=O)nn3)nc2c(NC(C)C)n1 [Compound 356] in this work.
For CO[C@H](C)c1cc2cnc(Nc3ccc(NC4CCNC4)nn3)nc2c(NC(C)C)n1 (some centres unmarked) [Compound 357], the IC50 was < 10 nM.
An IC50 of 10 to 100 nM was found for CO[C@H](C)c1cc2cnc(Nc3ccc(N4CCNCC4)nn3)nc2c(NC2CCS(=O)(=O)CC2)n1 [Compound 359] in this work.
For CO[C@H](C)c1cc2cnc(Nc3ccc(CN4CCNCC4)cn3)nc2c(NC2CCS(=O)(=O)CC2)n1 [Compound 361], the IC50 was < 10 nM.
An IC50 of 10 to 100 nM was found for CO[C@H](C)c1cc2cnc(Nc3ccc(N4CCNC(=O)C4)nn3)nc2c(NC(C)C)n1 [Compound 362] in this work.
An IC50 of 10 to 100 nM was found for CO[C@H](C)c1cc2cnc(Nc3ncc(N4CCNCC4)cn3)nc2c(NC(C)C)n1 [Compound 374] in this work.
For COCC(C)(C)Nc1nc([C@@H](C)O)cc2cnc(Nc3ncc(N4CCNCC4)cn3)nc12 [Compound 375], the IC50 was ≥ 100 nM.
An IC50 of 10 to 100 nM was found for CO[C@H](C)c1cc2cnc(Nc3ccc(N(C)C(=O)C4CCNCC4)cn3)nc2c(NC(C)C)n1 [Compound 377] in this work.
With COC(=O)[C@H]1CC[C@H](CNc2nc(C(C)OC)cc3cnc(Nc4ccc(CN5CCNCC5)cn4)nc23)CC1 (some centres unmarked) [Compound 390] the IC50 was < 10 nM.
An IC50 of 10 to 100 nM was found for COC(C)c1cc2cnc(Nc3ccc(CN4CCNCC4)cn3)nc2c(N(C)C(C)C)n1 (centres unmarked) [Compound 391] in this work.
For COC(C)c1cc2cnc(Nc3ccc(CN4CCNCC4)cn3)nc2c(NCC(C)C)n1 (centres unmarked) [Compound 392], the IC50 was < 10 nM.
An IC50 of 10 to 100 nM was found for COC(C)c1cc2cnc(Nc3ccc(CN4CCNCC4)cn3)nc2c(NCCN2CCNC2=O)n1 (centres unmarked) [Compound 393] in this work.
An IC50 of 10 to 100 nM was found for COC(C)c1cc2cnc(Nc3ccc(CN4CCNCC4)cn3)nc2c(NCC(C)(C)OC)n1 (centres unmarked) [Compound 394] in this work.
For COC(C)c1cc2cnc(Nc3ccc(CN4CCNCC4)cn3)nc2c(NCC2COC2)n1 (centres unmarked) [Compound 396], the IC50 was ≥ 100 nM.
In the case of COC(C)c1cc2cnc(Nc3ccc(CN4CCNCC4)cn3)nc2c(NC2CCCC(O)C2)n1 (centres unmarked) [Compound 397], the IC50 is reported as < 10 nM.
With COC(C)c1cc2cnc(Nc3ccc(CN4CCNCC4)cn3)nc2c(NCC2CCCCO2)n1 (centres unmarked) [Compound 398] the IC50 was < 10 nM.
An IC50 of 10 to 100 nM was found for COC(C)c1cc2cnc(Nc3ccc(CN4CCNCC4)cn3)nc2c(NC2CCNCC2)n1 (centres unmarked) [Compound 399] in this work.
An IC50 of 10 to 100 nM was found for COC(C)c1cc2cnc(Nc3ccc(CN4CCNCC4)cn3)nc2c(Nc2ccc(C#N)cc2)n1 (centres unmarked) [Compound 401] in this work.
With COC(C)c1cc2cnc(Nc3ccc(CN4CCNCC4)cn3)nc2c(NCC2CCCC(O)C2)n1 (centres unmarked) [Compound 402] the IC50 was < 10 nM.
An IC50 of 10 to 100 nM was found for COC(C)c1cc2cnc(Nc3ccc(CN4CCNCC4)cn3)nc2c(NCC2CCC(=O)N2)n1 (centres unmarked) [Compound 403] in this work.
COC(C)c1cc2cnc(Nc3ccc(CN4CCNCC4)cn3)nc2c(NC(C)C2CCOC2)n1 (centres unmarked) [Compound 404] was tested, and the IC50 was < 10 nM.
An IC50 of 10 to 100 nM was found for COC(C)c1cc2cnc(Nc3ccc(CN4CCNCC4)cn3)nc2c(NC2CCCN(C(C)=O)C2)n1 (centres unmarked) [Compound 405] in this work.
An IC50 of 10 to 100 nM was found for COC(C)c1cc2cnc(Nc3ccc(CN4CCNCC4)cn3)nc2c(NCC2CNC(=O)C2)n1 (centres unmarked) [Compound 406] in this work.
An IC50 of 10 to 100 nM was found for COC(C)c1cc2cnc(Nc3ccc(CN4CCNCC4)cn3)nc2c(NC2CCCN(C)C2)n1 (centres unmarked) [Compound 407] in this work.
An IC50 of 10 to 100 nM was found for COC(C)c1cc2cnc(Nc3ccc(CN4CCNCC4)cn3)nc2c(NC[C@@H]2CCCO2)n1 (some centres unmarked) [Compound 408] in this work.
In the case of COC(C)c1cc2cnc(Nc3ccc(CN4CCNCC4)cn3)nc2c(NC(C)C2CCCO2)n1 (centres unmarked) [Compound 409], the IC50 is reported as < 10 nM.
With COC(C)c1cc2cnc(Nc3ccc(CN4CCNCC4)cn3)nc2c(NC2CCOC(C)(C)C2)n1 (centres unmarked) [Compound 410] the IC50 was < 10 nM.
For COC(C)c1cc2cnc(Nc3ccc(CN4CCNCC4)cn3)nc2c(NC[C@H]2CCCO2)n1 (some centres unmarked) [Compound 411], the IC50 was < 10 nM.
In the case of COC(C)c1cc2cnc(Nc3ccc(CN4CCNCC4)cn3)nc2c(Nc2cccc(C#N)c2)n1 (centres unmarked) [Compound 412], the IC50 is reported as < 10 nM.
In the case of COC(C)c1cc2cnc(Nc3ccc(CN4CCNCC4)cn3)nc2c(NC2(CO)CCCC2)n1 (centres unmarked) [Compound 413], the IC50 is reported as < 10 nM.
An IC50 of 10 to 100 nM was found for COC(C)c1cc2cnc(Nc3ccc(CN4CCNCC4)cn3)nc2c(NCCN2CCCC2=O)n1 (centres unmarked) [Compound 414] in this work.
In the case of COC(C)c1cc2cnc(Nc3ccc(CN4CCNCC4)cn3)nc2c(NC2CN3CCC2CCOC3=O)n1 (centres unmarked) [Compound 415], the IC50 is reported as < 10 nM.
An IC50 of 10 to 100 nM was found for COC(C)c1cc2cnc(Nc3ccc(CN4CCNCC4)cn3)nc2c(NCc2ccc(=O)[nH]c2)n1 (centres unmarked) [Compound 416] in this work.
With COC(C)c1cc2cnc(Nc3ccc(CN4CCNCC4)cn3)nc2c(NC2CCCC2)n1 (centres unmarked) [Compound 417] the IC50 was < 10 nM.
COC(C)c1cc2cnc(Nc3ccc(CN4CCNCC4)cn3)nc2c(NCC(C)(C)C)n1 (centres unmarked) [Compound 418] was tested, and the IC50 was < 10 nM.
An IC50 of 10 to 100 nM was found for COC(C)c1cc2cnc(Nc3ccc(CN4CCNCC4)cn3)nc2c(NC2CNC(=O)C2)n1 (centres unmarked) [Compound 419] in this work.
With COC(C)c1cc2cnc(Nc3ccc(CN4CCNCC4)cn3)nc2c(NC2(C)CCOCC2)n1 (centres unmarked) [Compound 420] the IC50 was < 10 nM.
An IC50 of 10 to 100 nM was found for COC(C)c1cc2cnc(Nc3ccc(CN4CCNCC4)cn3)nc2c(NC2CCC(=O)NC2)n1 (centres unmarked) [Compound 421] in this work.
An IC50 of 10 to 100 nM was found for COC(C)c1cc2cnc(Nc3ccc(CN4CCNCC4)cn3)nc2c(NC2CCNC(=O)C2)n1 (centres unmarked) [Compound 422] in this work.
With CCC(C)Nc1nc(C(C)OC)cc2cnc(Nc3ccc(CN4CCNCC4)cn3)nc12 (centres unmarked) [Compound 423] the IC50 was < 10 nM.
With O[C@H]1CC[C@@H](Nc2nc(C(F)F)cc3cnc(Nc4ccc(CN5CCNCC5)cn4)nc23)CC1 [Compound 424] the IC50 was < 10 nM.
With O[C@H]1CC[C@@H](Nc2nc(C(F)F)cc3cnc(Nc4ccc(N5CCNCC5)nn4)nc23)CC1 [Compound 425] the IC50 was < 10 nM.
For CN(C)CCOc1ccc(Nc2ncc3cc(C(F)F)nc(N[C@H]4CC[C@@H](O)CC4)c3n2)nc1 [Compound 426], the IC50 was < 10 nM.
For COC(C)c1cc2cnc(Nc3ccc(CN4CCNCC4)cn3)nc2c(NC2CCC(O)C2)n1 (centres unmarked) [Compound 427], the IC50 was < 10 nM.
With COC(C)c1cc2cnc(Nc3ccc(CN4CCNCC4)cn3)nc2c(NCCC2CCOCC2)n1 (centres unmarked) [Compound 428] the IC50 was < 10 nM.
With COC(C)c1cc2cnc(Nc3ccc(CN4CCNCC4)cn3)nc2c(NCCC2CCCO2)n1 (centres unmarked) [Compound 429] the IC50 was < 10 nM.
For COC(C)c1cc2cnc(Nc3ccc(CN4CCNCC4)cn3)nc2c(NCCC2CCCCO2)n1 (centres unmarked) [Compound 430], the IC50 was < 10 nM.
COC(C)c1cc2cnc(Nc3ccc(CN4CCNCC4)cn3)nc2c(NCCC2CCCOC2)n1 (centres unmarked) [Compound 431] was tested, and the IC50 was < 10 nM.
An IC50 of 10 to 100 nM was found for COC(C)c1cc2cnc(Nc3ccc(CN4CCNCC4)cn3)nc2c(NC2(CO)CCOCC2)n1 (centres unmarked) [Compound 433] in this work.
COC(C)c1cc2cnc(Nc3ccc(CN4CCNCC4)cn3)nc2c(NC2(CO)CCCCC2)n1 (centres unmarked) [Compound 434] was tested, and the IC50 was < 10 nM.
An IC50 of 10 to 100 nM was found for COC(C)c1cc2cnc(Nc3ccc(CN4CCNCC4)cn3)nc2c(NC[C@H]2CC[C@H](C(=O)O)CC2)n1 (some centres unmarked) [Compound 435] in this work.
